Data taken from patent publication US6965048B2, “Hydroxyalkylamide derivatives” (Hoffmann-La Roche Inc., priority 2003, dated 2005).

In the case of `CN(CC[C@H]1CC[C@H](C(=O)N2CCC(C(N)=O)CC2)CC1)C(=O)Oc1ccc(Cl)cc1`, the melting point is reported as 162 to 165 °C (dec.).
